Where no end group is shown, it is not given here.
Tests used:
Format in all cases: cell-based
[1] = test system: human adipose-derived mesenchymal stem cells (AD-MSC); assay: Cytotoxicity, CCK-8 assay; conditions: different concentrations, after 7 days, 450 nm
[2] = test system: human-derived chondrocytes (C28/I2, human chondrocyte cell line); assay: Cytotoxicity, CCK-8 assay; conditions: C28/I2 cells, different concentrations, after 3 days, 450 nm
Experimental: The cytotoxicity of Peptide-1 or Peptide-2 upon addition to human-derived chondrocytes (C28/I2, human chondrocyte cell line) was analyzed using a CCK-8 assay.
Specifically, human-derived chondrocytes were seeded in a 96-well plate at a density of 3 × 10^3 cells/well and cultured in DMEM medium (cat. 11995-065, Gibco) for 24 hours. […] Meanwhile, as a negative control group, an experimental group to which the peptide was not added was used.

[3] = test system: human adipose-derived mesenchymal stem cells (AD-MSC); assay: Cell morphology changes, SRB staining; conditions: different concentrations, after 7 days
Experimental: Additionally, for SRB staining, after suctioning the medium from the plate, 60 µL of 3.7 % formalin was added to the 96-well plate to be stained and fixed for 1 minute. After suctioning 3.7 % formalin, 70 µL of SRB staining solution (sulforhodamine B sodium salt (sigma, S9012): 0.2 g in 100 mL DDW) was added and stained. The plate was covered with aluminum foil, blocked from light, and incubated overnight at room temperature. After washing with 100 µL of 1 % acetic acid using a multi-pipette, it was dried and observed under a microscope.

Substance | toxicity (CCK-8 activity) [1] | toxicity (CCK-8 activity) [2] | change in cell morphology in SRB staining [3]
KVSYAAEKNRKNY [Peptide-1, KVSYAAEKNRKNY] | did not exhibit toxicity | did not exhibit toxicity | did not show any change in cell morphology
SSFYF [Peptide-2, SSFYF] | did not exhibit toxicity | did not exhibit toxicity | did not show any change in cell morphology
